According to article PMC4301037, “Identification and Structure–Function Analysis of Subfamily Selective G Protein-Coupled Receptor Kinase Inhibitors” (ACS Chemical Biology, 2014):
Like-named read-outs stand apart in the source and are kept apart here.

What was measured:
[1] = target: T1, human GRK2S670A (Homo sapiens, UniProt P25098, S670A); assay: Primary DSF (differential scanning fluorimetry) inhibitor screen, GRK2; assay type: binding; settings: 10 μM compound; for ΔTm, primary screen, GRK2 / ΔTm at 10 µM: 2 μM kinase, relative to DMSO control; for ΔTm at 10 µM: read-out: ΔTm, primary screen, GRK2; for rank in the primary screen, GRK2: rank ordering of compounds in primary DSF screen
T1 construct: when using full-length kinases as the receptor[37] instead of isolated kinase domains; made in house
T1 sequence (P25098 1-689 S670A): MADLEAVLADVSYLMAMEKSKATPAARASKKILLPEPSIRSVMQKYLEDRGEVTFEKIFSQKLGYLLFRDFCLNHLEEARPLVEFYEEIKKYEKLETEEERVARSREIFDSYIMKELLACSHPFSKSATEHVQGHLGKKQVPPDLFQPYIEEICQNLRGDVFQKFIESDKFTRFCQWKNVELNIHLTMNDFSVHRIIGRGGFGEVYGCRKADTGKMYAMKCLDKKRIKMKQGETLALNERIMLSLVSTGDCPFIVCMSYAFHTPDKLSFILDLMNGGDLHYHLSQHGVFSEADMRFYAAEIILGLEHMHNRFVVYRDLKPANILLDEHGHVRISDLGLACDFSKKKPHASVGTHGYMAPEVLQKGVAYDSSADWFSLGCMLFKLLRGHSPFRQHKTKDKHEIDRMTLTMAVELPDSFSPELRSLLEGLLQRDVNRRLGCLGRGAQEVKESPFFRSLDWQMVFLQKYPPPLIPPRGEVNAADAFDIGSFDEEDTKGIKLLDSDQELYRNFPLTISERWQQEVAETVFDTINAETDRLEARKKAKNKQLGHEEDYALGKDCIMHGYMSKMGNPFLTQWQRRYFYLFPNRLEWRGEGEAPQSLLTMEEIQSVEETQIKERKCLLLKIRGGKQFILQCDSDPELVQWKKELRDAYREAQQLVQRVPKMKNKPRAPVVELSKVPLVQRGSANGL

[2] = target: T2, bovine GRK5 (Bos taurus, UniProt P43249); assay: Primary DSF inhibitor screen, GRK5; assay type: binding
T2 construct: when using full-length kinases as the receptor[37] instead of isolated kinase domains; made in house
T2 sequence (P43249 whole entry, the tested form may be a part): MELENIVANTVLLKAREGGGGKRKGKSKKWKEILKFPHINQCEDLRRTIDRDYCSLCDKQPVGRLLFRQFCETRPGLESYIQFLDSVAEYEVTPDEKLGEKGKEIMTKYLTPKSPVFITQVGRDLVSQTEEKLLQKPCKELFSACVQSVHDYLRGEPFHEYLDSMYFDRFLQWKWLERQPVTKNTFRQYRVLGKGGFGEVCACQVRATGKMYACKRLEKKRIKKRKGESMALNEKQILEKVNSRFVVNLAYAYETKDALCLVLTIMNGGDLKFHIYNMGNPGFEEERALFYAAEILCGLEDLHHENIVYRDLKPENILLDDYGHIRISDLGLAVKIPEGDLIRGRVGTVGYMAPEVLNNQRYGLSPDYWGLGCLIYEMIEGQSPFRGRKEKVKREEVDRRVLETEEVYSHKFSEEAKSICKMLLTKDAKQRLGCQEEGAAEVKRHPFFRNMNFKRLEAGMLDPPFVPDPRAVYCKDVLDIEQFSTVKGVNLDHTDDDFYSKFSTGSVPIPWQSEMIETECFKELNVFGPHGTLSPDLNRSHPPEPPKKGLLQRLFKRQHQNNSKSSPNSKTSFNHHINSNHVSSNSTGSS

[3] = target: T3, GRK1 (Bos taurus, UniProt P28327); assay: DSF retest (confirmation), GRK1; assay type: binding, bovine; settings: for GRK1 Tm: 0.2 mg mL^–1 kinase; for GRK1 ΔTm: relative to intrinsic melting point of the kinase
T3 construct: Bovine GRK1_1–535, bovine and human GRK2S670A; made in house
T3 sequence (P28327 1-535): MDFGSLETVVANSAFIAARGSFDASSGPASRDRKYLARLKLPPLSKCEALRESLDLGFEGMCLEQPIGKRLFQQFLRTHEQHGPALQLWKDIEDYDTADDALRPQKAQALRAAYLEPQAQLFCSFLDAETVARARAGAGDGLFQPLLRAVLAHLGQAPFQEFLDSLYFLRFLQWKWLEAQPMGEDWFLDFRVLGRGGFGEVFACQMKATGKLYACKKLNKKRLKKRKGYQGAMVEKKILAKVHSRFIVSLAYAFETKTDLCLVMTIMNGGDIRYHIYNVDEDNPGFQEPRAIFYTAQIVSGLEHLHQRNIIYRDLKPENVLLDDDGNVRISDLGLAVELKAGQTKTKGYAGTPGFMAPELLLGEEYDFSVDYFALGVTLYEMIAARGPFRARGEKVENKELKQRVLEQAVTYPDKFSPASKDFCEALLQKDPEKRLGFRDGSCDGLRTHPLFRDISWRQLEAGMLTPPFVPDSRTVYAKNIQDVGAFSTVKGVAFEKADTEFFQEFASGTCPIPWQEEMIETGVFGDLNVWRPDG

[4] = target: T4, GRK2 (Homo sapiens, UniProt P25098, S670A); assay: DSF retest (confirmation), GRK2; assay type: binding; settings: for GRK2 Tm: 0.2 mg mL^–1 kinase; for GRK2 ΔTm: relative to intrinsic melting point of the kinase
T4 construct: made in house
T4 sequence (P25098 1-689 S670A): T1 sequence (P25098 1-689 S670A)

[5] = target: T5, GRK5 (Bos taurus, UniProt P43249); assay: DSF retest (confirmation), GRK5; assay type: binding, bovine; settings: for GRK5 Tm: 0.2 mg mL^–1 kinase; for GRK5 ΔTm: relative to intrinsic melting point of the kinase
T5 construct: when using full-length kinases as the receptor[37] instead of isolated kinase domains; made in house
T5 sequence (P43249 whole entry, the tested form may be a part): as the sequence (P43249 whole entry, the tested form may be a part) above

[6] = target: T6, protein kinase A (PKA) (Mus musculus, UniProt P05132); assay: DSF retest (confirmation), PKA; assay type: binding; settings: for PKA Tm: 0.2 mg mL^–1 kinase; for PKA ΔTm: relative to intrinsic melting point of the kinase
T6 construct: His tag (inferred from pET15b vector and Ni-NTA column) (N); host or cells: E. coli Rosetta(DE3)pLysS
Method: Fourteen compounds (Figure 1a–c), including all GRK2 hits except staurosporine, and the most stabilizing pyrrolopyrimidine-containing compounds were obtained from GSK and retested using DSF on GRKs representing each vertebrate subfamily (GRK1, 2, and 5) (Table 1). […] The ability of these compounds to shift the Tm of the related AGC family kinase member protein kinase A (PKA) was also assessed (Table 1). In no case was ΔTm greater for PKA than for one of the tested GRKs. […]. There was no correlation for GRK1 (Figure 2c).
DSF was conducted using a ThermoFluor plate reader (Johnson & Johnson) in a buffer containing 20 mM HEPES, pH 7.0, 5 mM MgCl2, 2 mM DTT, and 1 mM CHAPS with 0.2 mg mL^–1 final concentration of GRK or PKA and 100 μM 1-anilinonaphthalene-8-sulfonic acid.[14]

[7] = target: T3, GRK1; assay: In vitro phosphorylation assay (tubulin, 5 μM ATP), GRK1; assay type: biochemical, bovine
[8] = target: T7, GRK2 (Bos taurus, UniProt P21146, S670A); assay: In vitro phosphorylation assay (tubulin, 5 μM ATP), GRK2; assay type: biochemical, bovine
T7 construct: made in house
T7 sequence (P21146 1-689 S670A): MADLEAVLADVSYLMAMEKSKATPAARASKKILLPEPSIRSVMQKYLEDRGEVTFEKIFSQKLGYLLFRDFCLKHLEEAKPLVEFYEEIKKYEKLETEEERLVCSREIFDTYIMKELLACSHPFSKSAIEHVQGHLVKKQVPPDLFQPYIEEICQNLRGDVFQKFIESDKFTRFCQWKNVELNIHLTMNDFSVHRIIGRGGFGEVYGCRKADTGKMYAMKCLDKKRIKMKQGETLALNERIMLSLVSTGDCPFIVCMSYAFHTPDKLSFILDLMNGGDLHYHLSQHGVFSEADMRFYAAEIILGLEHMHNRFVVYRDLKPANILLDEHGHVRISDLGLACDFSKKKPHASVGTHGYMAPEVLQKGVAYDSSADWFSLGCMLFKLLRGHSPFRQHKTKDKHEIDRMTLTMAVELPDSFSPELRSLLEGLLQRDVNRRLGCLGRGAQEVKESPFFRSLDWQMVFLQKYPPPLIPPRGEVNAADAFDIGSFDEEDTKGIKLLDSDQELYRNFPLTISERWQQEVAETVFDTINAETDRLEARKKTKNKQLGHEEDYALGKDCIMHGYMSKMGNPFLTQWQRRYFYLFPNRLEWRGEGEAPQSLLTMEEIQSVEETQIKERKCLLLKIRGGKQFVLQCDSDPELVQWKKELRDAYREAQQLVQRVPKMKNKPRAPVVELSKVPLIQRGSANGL

[9] = target: T5, GRK5; assay: In vitro phosphorylation assay (tubulin, 5 μM ATP), GRK5; assay type: biochemical, bovine
[10] = target: T8, PKA (Mus musculus, UniProt P05132); assay: PKA inhibition assay (ADP-Glo, CREBtide, 100 μM ATP); assay type: biochemical
T8 construct: His tag (inferred from pET15b vector and Ni-NTA column) (N); host or cells: E. coli Rosetta(DE3)pLysS

[11] = system: GRK1, 2, and 5 and PKA; assay: Ssel selectivity score calculated from inhibition of GRK1, 2, 5 and PKA; settings: selectivity score from inhibition of GRK1, 2, 5 and PKA; <0.5 selective
[12] = system: ROCK1; settings: relative to GSK180736A (substitution effect); cited from earlier work
[13] = system: 224 kinases; set-up: method as in ChEMBL database; settings: ref ChEMBL database, cited from earlier work
[14] = 10 μM compound, 2 μM kinase, relative to DMSO control, read-out: ΔTm, primary screen, GRK5
[15] = logarithm of IC50 (−3.3 corresponds to 0.5 mM, footnote c), 438 nM PKA, 100 μM ATP, CREBtide, read-out: PKA log IC50 (converted)

Compound | ΔTm, primary screen, GRK2 [1] [°C] | ΔTm at 10 µM [1] [°C] | rank in the primary screen, GRK2 [1] | ΔTm at 10 µM [2, 14] [°C] | GRK1 Tm [3] [°C] | GRK1 ΔTm [3] [°C] | GRK2 Tm [4] [°C] | GRK2 ΔTm [4] | GRK5 Tm [5] [°C] | GRK5 ΔTm [5] [°C] | PKA Tm [6] [°C] | PKA ΔTm [6] [°C] | GRK1 fold (increase in potency relative to paroxetine) [7] [fold] | GRK2 fold (increase in potency relative to paroxetine) [8] [fold] | GRK5 fold (increase in potency relative to paroxetine) [9] [fold] | IC50 [10, 15] [µM] | IC50 ([10]; read-out: IC50 against PKA) [µM] | Ssel [11] | further results
CC1=C(C(=O)Nc2ccc3[nH]ncc3c2)C(c2ccc3ccccc3c2)CC(=O)N1 (centres unmarked) [GSK270822A] | 3.8 | 3.82 | 5 | 3.92 | 24.6 | 4.7 | 47.8 | 10.3 °C | 29.4 | 2.6 | 51.9 | 6.5 | 1 | 0.10 | 2.0 | 50.1 | < 100 | 0.883 | increase in potency of ROCK inhibition [12]: 5 fold
CC1=C(C(=O)Nc2cc(Cl)c3[nH]ncc3c2)C(c2ccc(C(F)(F)F)cc2)CC(=O)N1 (centres unmarked) [GSK466317A] | 2.9 | 2.94 | 8 | 3.48 | 24.6 | 4.7 | 45.0 | 7.4 °C | 28.0 | 1.3 | 50.6 | 5.2 | 0 | 0.040 | 3.2 | 12.6 | < 100 | 1.001 | less potent than GSK180736A against GRK2 ([8]; relative to GSK180736A): 2 log; number of other AGC kinases inhibited by more than 50% ([13]; at 1 μM): more than 10
CN(c1ccc(NC(=O)Nc2ccc(OC(F)(F)F)cc2)cc1)c1ccnc(Nc2cccc(S(N)(=O)=O)c2)n1 [GW806742X] | – | – | – | – | 20.3 | 0.4 | 36.4 | –1.1 °C | 27.1 | 0.4 | 45.6 | 0.2 | – | – | – | > 501 | – | 1.386 | ΔTm, primary screen, GRK5 ([2]; 10 μM compound, 2 μM kinase, relative to DMSO control): 6.5 °C; rank in the primary screen, GRK5 ([2]; rank ordering of compounds in primary DSF screen, 10 μM compound): 16; ΔTm at 10 µM ([2]; read-out: ΔTm, primary screen, GRK5, 10 μM compound, 2 μM kinase, relative to DMSO control): 6.48 °C; IC50 ([7]; read-out: GRK1 log IC50 (converted)): > 1000 µM; IC50 ([8]; read-out: GRK2 log IC50 (converted)): > 1000 µM; IC50 ([9]; read-out: GRK5 log IC50 (converted)): > 1000 µM; inhibition pattern in kinase cross-screening, in words [13]: strong inhibition of many of the 221 kinases evaluated
